Measurements published in the supplement of paper PMC8633005.

What was measured:
Assay in all cases: drug sensitivity score (DSS) (DSS (unitless, 0-50 scale)); higher = more sensitive (stronger viability inhibition); extreme values may be limits of the assay
Details in all cases: 72 h; culture: 2D
WM852 = tested on: WM852
Procedure, shortened: (§1)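 Drug sensitivity scores, modified area-under-curve measures, were derived from dose-response curves fitted in the in-house Breeze software. The curves came from melanoma cell lines and patient-derived melanoma cultures (1000–1500 cells per well) grown in 2D in 384-well plates holding a 527-compound oncology library. Each compound was dissolved in DMSO or water and tested at five concentrations across a 10,000-fold range. Viability was read by CellTiter-Glo luminescence after 72 h at 37 °C.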

SK-MEL-2 = tested on: SK-MEL-2
Procedure, shortened: as §1

FM-MEL-2 = tested on: FM-MEL-2
Procedure, shortened: as §1

FM-MEL-6 = tested on: FM-MEL-6
Procedure, shortened: as §1

SK-MEL-28 = tested on: SK-MEL-28
Procedure, shortened: as §1

WM165 = tested on: WM165
Procedure, shortened: as §1

FM-MEL-3 = tested on: FM-MEL-3
Procedure, shortened: as §1

Bowes = tested on: Bowes
Procedure, shortened: as §1

Row | Structure (SMILES) | drug sensitivity score (WM852) | drug sensitivity score (SK-MEL-2) | drug sensitivity score (FM-MEL-2) | drug sensitivity score (FM-MEL-6) | drug sensitivity score (SK-MEL-28) | drug sensitivity score (WM165) | drug sensitivity score (FM-MEL-3) | drug sensitivity score (Bowes)
1 | CC(=O)O[C@H]1C(=O)[C@@]2(C)[C@H]([C@H](OC(=O)c3ccccc3)[C@]3(O)C[C@H](OC(=O)[C@H](O)[C@@H](NC(=O)c4ccccc4)c4ccccc4)C(C)=C1C3(C)C)[C@]1(OC(C)=O)CO[C@@H]1C[C@@H]2O [Paclitaxel] | 20.5 | 16.5 | 5.3 | 13.7 | 11.5 | 22.2 | 11.9 | 23.3
2 | Cc1ccc(-n2nc(C(C)(C)C)cc2NC(=O)Nc2ccc(OCCN3CCOCC3)c3ccccc23)cc1 [Doramapimod] | 0 | 0 | 1.4 | 0.8 | 0 | 3.4 | 1.7 | 0
3 | Cc1ccc(Nc2nccc(N(C)c3ccc4c(C)n(C)nc4c3)n2)cc1S(N)(=O)=O [Pazopanib] | 2.1 | 0 | 0 | 0.4 | 0 | 0 | 0 | 2.8
4 | CO[C@H](C(=O)[C@@H](O)[C@@H](C)O)[C@@H]1Cc2cc3cc(O[C@H]4C[C@@H](O[C@@H]5C[C@@H](O)[C@H](O)[C@@H](C)O5)[C@H](O)[C@@H](C)O4)c(C)c(O)c3c(O)c2C(=O)[C@H]1O[C@H]1C[C@@H](O[C@@H]2C[C@@H](O)[C@@H](O[C@@H]3C[C@](C)(O)[C@H](O)[C@@H](C)O3)[C@@H](C)O2)[C@H](O)[C@@H](C)O1 [Plicamycin] | 3.2 | 16.8 | 12.7 | 7.4 | 8.6 | 15.7 | 21.3 | 26.4
5 | Cc1cnc(Nc2ccc(OCCN3CCCC3)cc2)nc1Nc1cccc(S(=O)(=O)NC(C)(C)C)c1 [Fedratinib] | 6.8 | 4.5 | 3.6 | 3.1 | 3 | 9.1 | 6.7 | 10.9
6 | CCN(CC)CCCC(C)Nc1ccnc2cc(Cl)ccc12 (stereo unspecified) [Chloroquine] | 8.6 | 7 | 9.4 | 9.4 | 8.3 | 9.7 | 7.3 | 7
7 | CNC(=O)c1ccccc1Nc1cc(Nc2ccc(N3CCOCC3)cc2OC)ncc1C(F)(F)F [VS-4718] | 6.7 | 6.3 | 9.2 | 7.2 | 4.5 | 7.8 | 12.5 | 3
8 | Cc1nn(C)c(COc2ccc(N3CCN(S(=O)(=O)N(C)C)CC3)cc2)c1-c1cccc2c(CCCOc3cccc4ccccc34)c(C(=O)O)n(CCN3CCOCC3)c12 | 5.4 | 4.6 | 8 | 7.8 | 5.6 | 6.4 | 7.8 | 6.7
9 | C[C@@H](Oc1cc(-n2cnc3ccc(CN4CCN(C)CC4)cc32)sc1C(N)=O)c1ccccc1C(F)(F)F | 22.8 | 10.1 | 5 | 10 | 8.1 | 25.6 | 1.7 | 27.9
10 | Cc1ccc(C(=O)Nc2ccc(CN3CCN(C)CC3)c(C(F)(F)F)c2)cc1C#Cc1cnc2cccnn12 [Ponatinib] | 6.2 | 4.4 | 7.8 | 4.5 | 4.9 | 8.3 | 9.1 | 9.1
11 | Nc1ccn([C@@H]2O[C@H](CO)[C@@H](O)[C@@H]2O)c(=O)n1 [Cytarabine] | 0 | 2.4 | 1.9 | 7.2 | 12.1 | 15.7 | 9.3 | 0
12 | CN[C@@H]1C[C@H]2O[C@@](C)([C@@H]1OC)n1c3ccccc3c3c4c(c5c6ccccc6n2c5c31)C(=O)N[C@H]4O [UCN-01] | 19.9 | 16.2 | 13.5 | 14.5 | 13.4 | 23.5 | 24.7 | 17.5
13 | O=C(Nc1nc2cccc(-c3ccc(CN4CCS(=O)(=O)CC4)cc3)n2n1)C1CC1 [Filgotinib] | 5.9 | 0 | 0 | 4.5 | 0 | 0.7 | 0 | 4.5
14 | CN(C)Cc1c(C(=O)NCCOc2ccc(C(=O)NO)cc2)oc2ccccc12 [Abexinostat] | 9.1 | 15.9 | 15.9 | 14.7 | 13 | 17 | 14.6 | 10
15 | Nc1nc(Cl)nc2c1ncn2[C@@H]1O[C@H](CO)[C@@H](O)[C@@H]1F [Clofarabine] | 8.6 | 7.6 | 2.4 | 9.6 | 10.8 | 16.6 | 11.8 | 10.9
16 | CCCC(CCC)C(=O)O [Valproic acid] | 0 | 0 | 0.2 | 0 | 0 | 0 | 0.3 | 0

Row | Structure (SMILES) | drug sensitivity score (WM852) | drug sensitivity score (SK-MEL-2) | drug sensitivity score (FM-MEL-2) | drug sensitivity score (FM-MEL-6) | drug sensitivity score (SK-MEL-28) | drug sensitivity score (WM165) | drug sensitivity score (FM-MEL-3) | drug sensitivity score (Bowes)
17 | CC[C@@H]1C(=O)N(C)c2cnc(Nc3ccc(C(=O)NC4CCN(C)CC4)cc3OC)nc2N1C1CCCC1 [BI 2536] | 18 | 10.5 | 1.7 | 6.7 | 3.5 | 19.6 | 4.3 | 19.7
18 | O=C(CCCCCCC(=O)Nc1ccccc1)NO [Vorinostat] | 4.4 | 6.1 | 5.6 | 8.4 | 7.9 | 9.1 | 9.2 | 0.7
19 | CC(C)[C@@H](CS(=O)(=O)C(C)C)N1C(=O)[C@@](C)(CC(=O)O)C[C@H](c2cccc(Cl)c2)[C@H]1c1ccc(Cl)cc1 [AMG-232] | 0 | 0 | 1.8 | 0 | 0 | 19 | 10.5 | 0
20 | C#Cc1cccc(Nc2ncnc3cc(OCCOC)c(OCCOC)cc23)c1 [Erlotinib] | 2.5 | 0 | 4.4 | 1.9 | 1.1 | 3.9 | 3.5 | 1.8
21 | O=C(Nc1cccc(Nc2ncc(Br)c(NCCc3cnc[nH]3)n2)c1)N1CCCC1 [BX-912] | 1.9 | 0 | 5.9 | 0.5 | 1.9 | 8.2 | 0.9 | 5.6
22 | CNC(=O)c1ccccc1Nc1nc(Nc2ccc3c(c2OC)CCC[C@H](N2CCN(CCO)CC2)C3)ncc1Cl | 7.7 | 4.5 | 7.2 | 7.6 | 7.9 | 9.2 | 8.6 | 8.2
23 | COC(=O)c1ccc2c(c1)NC(=O)/C2=C(\Nc1ccc(N(C)C(=O)CN2CCN(C)CC2)cc1)c1ccccc1 [Nintedanib] | 5.3 | 0 | 1.5 | 5.6 | 2.1 | 0 | 1.8 | 6.5
24 | CN(C)C(=O)c1ccc(S(=O)(=O)c2ccc(NC(=O)[C@@](C)(O)C(F)(F)F)c(Cl)c2)cc1 [AZD7545] | 1.1 | 0 | 0 | 0 | 0 | 0 | 0 | 2.2
25 | Cc1cc(Nc2nc(N[C@@H](C)c3ncc(F)cn3)ncc2Cl)[nH]n1 [AZD1480] | 0 | 0 | 0 | 0 | 0 | 0 | 0 | 0
26 | CO[C@H]1C[C@@H]2CC[C@@H](C)[C@@](O)(O2)C(=O)C(=O)N2CCCC[C@H]2C(=O)O[C@H]([C@H](C)C[C@@H]2CC[C@@H](OCCO)[C@H](OC)C2)CC(=O)[C@H](C)/C=C(\C)[C@@H](O)[C@@H](OC)C(=O)[C@H](C)C[C@H](C)/C=C/C=C/C=C/1C [Everolimus] | 0 | 0 | 2.2 | 3.6 | 3 | 4.9 | 4.7 | 0
27 | C=C(c1ccc(C(=O)O)cc1)c1cc2c(cc1C)C(C)(C)CCC2(C)C [Bexarotene] | 0 | 0 | 1.3 | 0.4 | 2.3 | 0 | 2.9 | 0
28 | CC[C@H](C)C(=O)O[C@H]1C[C@H](O)C=C2C=C[C@H](C)[C@H](CC[C@@H](O)C[C@@H](O)CC(=O)O)[C@H]21 [Pravastatin] | 0 | 0 | 0.8 | 0 | 0 | 0 | 0 | 0
29 | Clc1ccc(Nc2nnc(Cc3ccncc3)c3ccccc23)cc1 [Vatalanib] | 0 | 0 | 0 | 0 | 0 | 0 | 0 | 0
30 | COc1ccc(-c2ccc3ncc4c(c3c2)n(-c2ccc(N3CCNCC3)c(C(F)(F)F)c2)c(=O)n4C)cn1 [NVP-BGT226] | 11.9 | 13.6 | 11.7 | 12 | 11.5 | 18.3 | 13.1 | 19
31 | Cn1ncc(Cl)c1-c1cc(C(=O)N[C@H](CN)Cc2ccc(F)c(F)c2)oc1Cl [Uprosertib] | 0 | 0 | 1.2 | 0 | 0.5 | 1.1 | 0 | 0
32 | CN(C)c1cc2c(cc1Sc1nc3c(N)nccc3n1CCNCC(C)(C)C)OCO2 [CUDC-305] | 7.2 | 10.7 | 9.7 | 5.3 | 8.6 | 16.1 | 13 | 13.8
